Experiments:
[1] = tested on: BT-474; assay: Proliferation inhibition assay in vitro, BT-474 (CellTiter-Glo); assay type: cell-based; details: Homo sapiens, 72 hours, read-out: IC50(nM) cell BT-474
Description: (§1) Proliferation Inhibition Assay In Vitro of Cell Lines
(§2) 1. Cell culture and inoculation: on the first day of the experiment, normal cultured cells were taken in the exponential growth phase, the cells were dispersed by digesting, then the cell density was adjusted to 8.8×10^4 cells/mL for BT-474 and 6.6×10^4 cells/mL for N87, 90 μl of which were inoculated to each well in a 96-well cell culture plate; after inoculation, the microplate was placed at condition of 37° C., 5% CO2 overnight. 2. Dosing to cells: on the second day of the experiment, the microplate was taken out from incubator, […], of 10× compound was separately added to each well of the microplate, 2 duplicated wells were set for each concentration, 9 dosing concentrations were set for each compound. According to different cell lines, the initial concentration of each compound was different. Upon completion of addition, the microplate was placed at condition of 37° C., 5% CO2 for 72 hours. 3. Data acquisition: the microplate was taken out from the incubator and allowed to stand at room temperature to equilibrate for 30 minutes. 100 μl CellTiter-Glo® Luminescent Cell Viability Assay reaction solution which had been equilibrated at room temperature was added to each well and the microplate was shaken at 1300 rpm for 2 minutes at room temperature. The microplate was centrifuged at 2000 rpm for 1 minute in a HERAEUS Multifuge X1R and then allowed to equilibrate at room temperature for 10 minutes. The […] signal was measured on EnVision™.

[2] = tested on: N87; assay: Proliferation inhibition assay in vitro, N87 (CellTiter-Glo); assay type: cell-based; details: Homo sapiens; 72 hours; read-out: IC50(nM) cell N87
Description: as §1, §2

[3] = molecular target: EGFR kinase (Homo sapiens, UniProt P00533); assay: Enzymatic experiment on EGFR (HTRF kinEASE-TK); assay type: biochemical; details: ATP 1.65 μM; read-out: Kinase IC50 (nM) in vitro EGFR
Description: (§3) Enzymatic Experiment on EGFR/ErbB2
(§4) Firstly, preparing 1× reaction buffer required for the kinase, 5× Enzymatic buffer (HEPES 20 mM pH7.0, NaN3 0.1%, BSA 0.05%, sodium orthovanadate 0.5 mM) in the HTRF kinEASE-TK kit was diluted to 1 time with deionized water, 50 nM Supplement Enzymatic buffer (SEB reagent), 1 mM MnCl2, 5 mM MgCl2 and 1 mM DTT were added. Secondly, preparing 5× compound, 10 mM test compound stock solution was diluted in multiple steps with DMSO in a 96-well compound plate to prepare 100× compound as initial concentration, which was then used as the first concentration to perform a 3-fold gradient dilution with DMSO to obtain 10 concentrations. Afterwards, 1 μl gradient dilution was added to 19 μl 1× reaction buffer to prepare 5× compound for use. Then 2 μl 5× compound was transferred from the 96 well plate into a 384-well plate. To the compound-free control wells was added with 2 μl the following liquid: 19 μl 1× reaction buffer with addition of 1 μl DMSO. To the blank control wells was added 2 μl 250 mM EDTA. The third step was enzymatic reaction, the kinase, substrate (TK Substrate-biotin) and ATP were formulated into 2.5× enzyme/substrate mixture and 2.5×ATP solution using 1× reaction buffer respectively. The final concentration of ErbB2 kinase was 0.06 ng/μl, the final concentration of ATP was 4 μM; the final concentration of EGFR kinase was 0.06 units/μl, the final concentration of ATP was 1.65 μM; 4 μl 2.5× enzyme/substrate mixture was added to a 384-well plate, which was incubated at room temperature for 5 minutes; 4 μl 2.5×ATP solution was added to each well and the mixture was allowed to react for 30 minutes at room temperature. The fourth step was termination of the reaction, HTRF Detection buffer was used to prepare a mixture of 2×TK Antibody-Eu(K) and Sa-XL665, the amount of TK Antibody-Eu(K) was 5 μl per well. After the enzymatic reaction was performed for 30 minutes, 10 μl of the above liquid was added to the 384-well plate and the mixture was allowed to react at room temperature for 1 hour. The data was measured on EnVision™, the laser of 337 nm wavelength was selected as the excitation light, RFU665 nM and RFU620 nM were measured, and […]/RFU620 nM×10000 was used as the final data for analysis.

[4] = molecular target: ErbB2 kinase (Homo sapiens, UniProt P04626); assay: Enzymatic experiment on ErbB2 (HTRF kinEASE-TK); assay type: biochemical; details: ATP 4 μM; read-out: Kinase IC50 (nM) in vitro ErbB2
Description: as §3, §4

Sequence of EGFR kinase (P00533 25-1210): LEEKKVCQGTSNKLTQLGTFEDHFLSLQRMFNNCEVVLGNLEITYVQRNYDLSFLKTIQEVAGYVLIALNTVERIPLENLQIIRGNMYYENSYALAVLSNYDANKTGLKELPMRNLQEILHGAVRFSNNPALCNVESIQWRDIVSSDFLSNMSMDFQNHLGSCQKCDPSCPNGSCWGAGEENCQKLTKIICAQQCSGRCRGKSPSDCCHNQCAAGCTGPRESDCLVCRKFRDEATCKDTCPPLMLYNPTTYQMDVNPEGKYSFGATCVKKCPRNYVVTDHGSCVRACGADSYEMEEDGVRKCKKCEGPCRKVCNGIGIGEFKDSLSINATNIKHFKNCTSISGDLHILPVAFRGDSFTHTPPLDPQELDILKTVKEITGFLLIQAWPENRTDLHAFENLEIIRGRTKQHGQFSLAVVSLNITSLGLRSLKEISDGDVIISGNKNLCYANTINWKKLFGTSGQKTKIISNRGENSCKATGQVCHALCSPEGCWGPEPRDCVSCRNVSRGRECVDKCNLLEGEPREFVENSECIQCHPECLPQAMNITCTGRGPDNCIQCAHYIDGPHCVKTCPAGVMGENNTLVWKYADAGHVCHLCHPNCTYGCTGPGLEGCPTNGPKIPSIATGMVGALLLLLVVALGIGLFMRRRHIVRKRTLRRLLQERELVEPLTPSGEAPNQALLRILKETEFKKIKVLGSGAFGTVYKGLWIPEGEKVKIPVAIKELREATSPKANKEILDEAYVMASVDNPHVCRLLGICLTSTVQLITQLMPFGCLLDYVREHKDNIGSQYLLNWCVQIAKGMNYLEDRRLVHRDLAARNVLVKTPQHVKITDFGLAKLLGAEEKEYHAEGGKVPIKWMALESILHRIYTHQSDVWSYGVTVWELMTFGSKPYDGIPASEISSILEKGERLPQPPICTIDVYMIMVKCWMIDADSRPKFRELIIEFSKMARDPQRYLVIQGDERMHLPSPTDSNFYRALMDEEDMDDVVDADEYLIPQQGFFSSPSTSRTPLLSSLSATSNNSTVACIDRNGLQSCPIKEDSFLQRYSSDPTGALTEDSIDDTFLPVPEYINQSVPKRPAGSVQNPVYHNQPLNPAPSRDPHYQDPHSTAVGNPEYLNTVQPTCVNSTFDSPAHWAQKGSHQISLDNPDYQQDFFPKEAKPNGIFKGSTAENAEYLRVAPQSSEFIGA
Sequence of ErbB2 kinase (P04626 23-1255): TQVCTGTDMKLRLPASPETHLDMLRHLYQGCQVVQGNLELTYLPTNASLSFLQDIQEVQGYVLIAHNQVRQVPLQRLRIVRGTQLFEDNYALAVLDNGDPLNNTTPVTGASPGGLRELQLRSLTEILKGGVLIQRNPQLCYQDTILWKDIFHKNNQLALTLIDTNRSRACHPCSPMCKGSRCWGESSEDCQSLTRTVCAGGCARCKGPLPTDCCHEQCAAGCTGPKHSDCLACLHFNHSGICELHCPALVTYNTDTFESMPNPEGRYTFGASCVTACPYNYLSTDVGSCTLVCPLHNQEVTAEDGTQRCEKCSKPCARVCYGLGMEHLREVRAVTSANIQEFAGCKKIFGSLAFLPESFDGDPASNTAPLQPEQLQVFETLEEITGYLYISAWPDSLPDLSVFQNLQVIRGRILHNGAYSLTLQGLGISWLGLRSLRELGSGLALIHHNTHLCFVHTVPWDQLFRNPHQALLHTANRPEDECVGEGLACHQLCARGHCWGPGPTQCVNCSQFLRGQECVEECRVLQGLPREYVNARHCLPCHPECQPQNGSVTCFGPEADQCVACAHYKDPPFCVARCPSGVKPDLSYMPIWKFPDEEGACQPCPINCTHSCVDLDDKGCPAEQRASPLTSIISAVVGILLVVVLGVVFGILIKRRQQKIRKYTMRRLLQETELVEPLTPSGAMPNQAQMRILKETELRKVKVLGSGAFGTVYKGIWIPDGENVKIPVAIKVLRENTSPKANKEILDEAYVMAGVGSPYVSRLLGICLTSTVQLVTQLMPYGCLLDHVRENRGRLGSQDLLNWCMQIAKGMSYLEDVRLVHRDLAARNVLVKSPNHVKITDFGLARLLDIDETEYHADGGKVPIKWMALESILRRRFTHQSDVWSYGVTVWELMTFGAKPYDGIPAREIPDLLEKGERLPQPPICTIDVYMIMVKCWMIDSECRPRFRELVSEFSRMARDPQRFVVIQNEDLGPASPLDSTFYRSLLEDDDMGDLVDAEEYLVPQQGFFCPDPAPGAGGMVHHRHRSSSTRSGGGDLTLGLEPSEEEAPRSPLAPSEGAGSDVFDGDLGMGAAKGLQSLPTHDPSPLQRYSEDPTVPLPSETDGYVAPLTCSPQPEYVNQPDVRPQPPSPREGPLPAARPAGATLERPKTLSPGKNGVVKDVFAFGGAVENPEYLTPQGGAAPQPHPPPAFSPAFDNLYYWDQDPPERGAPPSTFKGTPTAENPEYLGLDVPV

| Compound | IC50 [1] | IC50 [2] | IC50 [3] | IC50 [4] |
| --- | --- | --- | --- | --- |
| Cc1cc(Nc2ncnc3ccc(NC4=NCC5(CCN(C)CC5)O4)cc23)ccc1Oc1cc2nncn2cn1 [Embodiment 31, N^4-(4-([1,2,4]triazolo[4,3-c]pyrimidin-7-yloxy)-3-methylphenyl)-N^6-(8-methyl-1-oxa-3,8-diazaspiro[4.5]dec-2-en-2-yl)quinazoline-4,6-diamine] | 187 nM | 433 nM | 57.4 nM | 10.1 nM |
| CNC(=O)CN1CCC(Oc2cc3c(Nc4ccc(Oc5cc6nncn6cn5)c(C)c4)ncnc3cc2OC)CC1 [Embodiment 32, 2-(4-(7-methoxy-4-(3-methyl-4-([1,2,4]triazolo[4,3-c]pyrimidin-7-yloxy)anilino)quinazolin-6-yl)oxy-1-piperidinyl)-N-methylacetamide] | 92.6 nM | 440 nM | 2 nM | 4.3 nM |
| COCC(=O)Nc1cccc(-c2ccc3ncnc(Nc4ccc(Oc5cc6nncn6cn5)c(C)c4)c3c2)c1 [Embodiment 34, N-(3-(4-((4-([1,2,4]triazolo[4,3-c]pyrimidin-7-yloxy)-3-methylphenyl)amino)quinazoline-6-yl)phenyl)-2-methoxyacetamide] | 55.6 nM | 46.3 nM | 8.2 nM | 2.1 nM |
| Cc1cc(Nc2ncnc3ccc(-c4cccc(N)c4)cc23)ccc1Oc1cc2nncn2cn1 [Embodiment 35] | 49.6 nM | 52.9 nM | 10.9 nM | 1.1 nM |
| Cc1cc(Nc2ncnc3ccc(-c4ccc(CNCCNS(C)(=O)=O)o4)cc23)ccc1Oc1cc2nncn2cn1 [Embodiment 36, N-(2-(((5-(4-((4-([1,2,4]triazolo[4,3-c]pyrimidin-7-yloxy)-3-methylphenyl)amino)quinazolin-6-yl)furan-2-yl)methyl)amino)ethyl)methylsulfonamide] | 21.5 nM | 47.5 nM | 1.9 nM | 1.5 nM |
| CCOC(=O)Nc1cccc(-c2ccc3ncnc(Nc4ccc(Oc5cc6nncn6cn5)c(C)c4)c3c2)c1 [Embodiment 38, ethyl (3-(4-((4-([1,2,4]triazolo[4,3-c]pyrimidin-7-yloxy)-3-methylphenyl)amino)quinazoline-6-yl)phenyl)carbamate] | 186 nM | 86.6 nM | 28.1 nM | 5 nM |
| C=CC(=O)N1CCC(Oc2cc3c(Nc4ccc(Oc5cc6nncn6cn5)c(C)c4)ncnc3cc2OC)CC1 [Embodiment 41, 1-(4-((4-((4-([1,2,4]triazolo[4,3-c]pyrimidin-7-yloxy)-3-methylphenyl)amino)-7-methoxyquinazolin-6-yl)oxy)piperidin-1-yl)pro-2-en-1-one] | 6.9 nM | 11.7 nM | 1.3 nM | 4.3 nM |
| C=C(F)C(=O)N1CCC(Oc2cc3c(Nc4ccc(Oc5cc6nncn6cn5)c(C)c4)ncnc3cc2OC)CC1 [Embodiment 42, 1-(4-((4-((4-([1,2,4]triazolo[4,3-c]pyrimidin-7-yloxy)-3-methylphenyl)amino)-7-methoxyquinazolin-6-yl)oxy)piperidin-1-yl)-2-fluoroprop-2-en-1-one] | 36.7 nM | 39.2 nM | 8.3 nM | 5.2 nM |
| Cc1cc(Nc2ncnc3ccc(NC4=NC5(CCC5)CO4)cc23)ccc1Oc1cc2nncn2cn1 [Embodiment 44, N^4-(4-([1,2,4]triazolo[4,3-c]pyrimidin-7-yloxy)-3-methylphenyl)-N^6-(7-oxa-5-azaspiro[3.4]oct-5-en-6-yl)quinazoline-4,6-diamine] | 41 nM | 46 nM | 11.6 nM | 1.43 nM |
| Cc1cc(Nc2ncnc3ccc(NC4=N[C@H](C(C)C)CO4)cc23)ccc1Oc1cc2nncn2cn1 [Embodiment 45, (R)—N^4-(4-([1,2,4]triazolo[4,3-c]pyrimidin-7-yloxy)-3-methylphenyl)-N^6-(4-isopropyl-4,5-dihydrooxazol-2-yl)quinazoline-4,6-diamine] | 85.4 nM | 93.4 nM | 53.4 nM | 2.8 nM |
| Cc1cc(Nc2ncnc3ccc(NC4=NCC5(CCOCC5)O4)cc23)ccc1Oc1cc2nncn2cn1 [Embodiment 46, N^4-(4-([1,2,4]triazolo[4,3-c]pyrimidin-7-yloxy)-3-methylphenyl)-N^6-(1,8-dioxa-3-azaspiro[4.5]dec-2-en-2-yl)quinazoline-4,6-diamine] | 172 nM | 316 nM | 51.6 nM | 12 nM |
| Cc1cc(Nc2ncnc3ccc(NC4=NC5(CCOCC5)CO4)cc23)ccc1Oc1cc2nncn2cn1 [Embodiment 47, N^4-(4-([1,2,4]triazolo[4,3-c]pyrimidin-7-yloxy)-3-methylphenyl)-N^6-(3,8-dioxa-1-azaspiro[4.5]dec-1-en-2-yl)quinazoline-4,6-diamine] | 35 nM | 68.4 nM | 31.4 nM | 2.6 nM |
| Cc1cc(Nc2ncnc3ccc(NC4=NC5(CO4)CC(F)(F)C5)cc23)ccc1Oc1cc2nncn2cn1 [Embodiment 48, N^4-(4-([1,2,4]triazolo[4,3-c]pyrimidin-7-yloxy)-3-methylphenyl)-N^6-(2,2-difluoro-7-oxa-5-azaspiro[3.4]oct-5-en-6-yl)quinazoline-4,6-diamine] | 42.2 nM | 64 nM | 9.4 nM | 1.3 nM |
| CCNC(=O)NC/C=C/c1ccc2ncnc(Nc3ccc(Oc4cc5nncn5cn4)c(C)c3)c2c1 [Embodiment 49, (E)-1-(3-(4-((4-([1,2,4]triazolo[4,3-c]pyrimidin-7-yloxy)-3-methylphenyl)amino)quinazolin-6-yl)allyl)-3-ethylurea] | 33.4 nM | 271 nM | 28.1 nM | 1.85 nM |
| CCNC(=O)Nc1cccc(-c2ccc3ncnc(Nc4ccc(Oc5cc6nncn6cn5)c(C)c4)c3c2)c1 [Embodiment 50, 1-(3-(4-((4-([1,2,4]triazolo[4,3-c]pyrimidin-7-yloxy)-3-methylphenyl)amino)quinazolin-6-yl)phenyl)-3-ethylurea] | 104 nM | 116 nM | 27.8 nM | 3.6 nM |
| Cc1cc(Nc2ncnc3ccc(-c4cccc(NC(=O)/C=C/c5cccnc5)c4)cc23)ccc1Oc1cc2nncn2cn1 [Embodiment 51, (E)-N-(3-(4-((4-([1,2,4]triazolo[4,3-c]pyrimidin-7-yloxy)-3-methylphenyl)amino)quinazolin-6-yl)phenyl)-3-(pyridin-3-yl)acryiamide] | 108 nM | 93.7 nM | 47.1 nM | 8.41 nM |
| C=CC(=O)Nc1cncc(-c2ccc3ncnc(Nc4ccc(Oc5cc6nncn6cn5)c(C)c4)c3c2)c1 [Embodiment 52, N-(5-(4-((4-([1,2,4]triazolo[4,3-c]pyrimidin-7-yloxy)-3-methylphenyl)amino)quinazolin-6-yl)pyridin-3-yl)acrylamide] | 30.4 nM | 117 nM | 21.6 nM | 2.35 nM |
| C=CC(=O)NC/C=C/c1ccc2ncnc(Nc3ccc(Oc4cc5nncn5cn4)c(C)c3)c2c1 [Embodiment 53, (E)-N-(3-(4-((4-([1,2,4]triazolo[4,3-c]pyrimidin-7-yloxy)-3-methylphenyl)amino)quinazolin-6-yl)allyl)acrylamide] | 5.9 nM | 6.2 nM | 57.9 nM | 3.58 nM |

From patent US10828305B2 (SHANGHAI PHARMACEUTICALS HOLDING CO., LTD., priority 2016, dated 2020)
